According to patent publication US10548979B2, “Light-activated compositions and methods using the same” (THE REGENTS OF THE UNIVERSITY OF COLORADO, A BODY CORPORATE, priority 2015, dated 2020):

Legend:
MDR E. coli = test: Antibiotic IC50 measurement (Resazurin) in clinical isolates; type: cell-based, Escherichia coli; conditions: 24 h growth
Protocol: Overnight cultures of clinical isolates were diluted to a 0.5 McFarland standard in CAMHB with respective test concentration of antibiotic. Cultures were grown for 24 h at 37° C. with 225 rpm shaking. After 24 h of growth, Resazurin sodium salt (Sigma Aldrich) solution was added and the reaction was monitored for fluorescence measuring every 5 min for 4 h at 37° C. with 225 rpm shaking using 485/610 nm filters. The slope of Resazurin fluorescence was used a quantitative measure of cell metabolism. The IC50 was determined as the concentration of antibiotic which caused a 50% reduction in slope compared to the same biological replicate in no treatment.

MDR S. typhimurium = test: as above; type: cell-based, Salmonella typhimurium; conditions: 24 h growth
Protocol: Overnight cultures of clinical isolates were diluted to a 0.5 McFarland standard in CAMHB with respective test concentration of antibiotic. […] The slope of Resazurin fluorescence was used a quantitative measure of cell metabolism.

ESBL K. pneumoniae = test: Combinatorial experiments CdTe-2.4 with antibiotic, growth (optical density); type: cell-based, Klebsiella pneumoniae; conditions: breakpoint amount of streptomycin, without CdTe-2.4
Protocol: Five antibiotic concentrations were selected for each strain, so that the levels tested would be below the IC50, near the CLSI or defined breakpoint, and near the IC50. Concentrations of CdTe-2.4 were held constant for all strains at 12.5 nM, 25 nM, and 50 nM. Using these metrics, three biological replicates were tested from each strain with 15 test conditions as well as monotherapy controls and a no treatment condition. Clinical strains were diluted 1:100 from overnight into test condition and grown at 37° C. with 225 rpm. Optical density was measured every 30 min for the first 3 h and every hour subsequently until 8 h. After 8 h of growth, Resazurin sodium salt solution was added and the reaction was monitored for fluorescence measuring every 5 min for 4 h at 37° C. with 225 rpm shaking using 485/610 nm filters. The slope of Resazurin fluorescence was used a quantitative measure of cell metabolism.

Compound | sensitivity to antibiotic (IC50 versus CLSI or breakpoint) (MDR E. coli) | sensitivity to antibiotic (IC50 versus CLSI or breakpoint) (MDR S. typhimurium) | effect of antibiotic alone on growth (ESBL K. pneumoniae)
O=C(N[C@H](CO)[C@H](O)c1ccc([N+](=O)[O-])cc1)C(Cl)Cl [chloramphenicol] | sensitive | sensitive | 
[H]/N=C(/N)N[C@H]1[C@H](O)[C@@H](O)[C@H](O[C@@H]2O[C@@H](C)[C@](O)(C=O)[C@H]2O[C@@H]2O[C@@H](CO)[C@H](O)[C@@H](O)[C@@H]2NC)[C@@H](N/C(N)=N\[H])[C@@H]1O [streptomycin] |  |  | previously ineffective
